Test results as given in patent US20260207592A1, “PHARMACEUTICAL SUSPENSION OF NILOTINIB” (RENATA PHARMACEUTICALS (IRELAND) LIMITED, priority 2022, published 2026).
Values after ≈ are worked out from the molar mass of the structure shown. Structures can show the parent of a compound that is named as a salt.

Experiments:
[1] = cited from earlier work
[2] = Selection of surfactants: API solubility with different surfactants; settings: solubility not done, observation
physchem [3] = experiment: physchem
physchem [4] = settings: 0.01N HCl, simulated gastric fluid

solubility ([2]; SLS, 5 mg/ml)	solubility ([2]; Span 80, 150 ml/ml)	solubility (physchem [3]) [µg/mL]	solubility (physchem [3]; poloxamer 188 solution, 100 mg/ml, aqueous with cosolvent or surfactant or cyclodextrin) [µg/mL]	solubility (physchem [3]; poloxamer 407 solution, 10 mg/ml, aqueous with cosolvent or surfactant or cyclodextrin) [µg/mL]	solubility (physchem [3]; polysorbate 20 solution, 5 mg/ml, aqueous with cosolvent or surfactant or cyclodextrin) [µg/mL]	solubility (physchem [4]) [µg/mL]	SMILES	solubility in alcohol (descriptive) ([1]; alcohol)	solubility in water ([1]; water) [µg/mL]	solubility in water (descriptive) ([1]; water)
							Cc1cn(-c2cc(NC(=O)c3ccc(C)c(Nc4nccc(-c5cccnc5)n4)c3)cc(C(F)(F)F)c2)cn1 [Nilotinib, 4-Methyl-3-[[4-(3-pyridinyl)-2-pyrimidinyl]amino]-N-[5-(4-methyl-1H-imidazol-1-yl)-3-(trifluoromethyl)phenyl] benzamide]	slightly soluble	0.2 (≈ 0.378 µM)	very slightly soluble
Not done (Large lump formed	Not done (phase separation observed	0.2	321	227	478	494	Cc1cn(-c2cc(NC(=O)c3ccc(C)c(Nc4nccc(-c5cccnc5)n4)c3)cc(C(F)(F)F)c2)cn1 [API, Nilotinib Hydrochloride Monohydrate]			
